Source: patent publication US20070087326A1, “Method of measuring the biological activity of an urotensin II receptor” (priority 2005, published 2007)
Bridge positions count the residues as written; N and C are the ends. Square brackets hold non-standard residues; d marks the D form. Peptide text beside a SMILES is read from it. Pen = CC(C)(S)[C@H](N)C(=O)O; Orn = NCCC[C@H](N)C(=O)O

Columns and labels:
[1] = system: panel of receptor/ion channels; assay: binding to a panel of receptor/ion channels; settings: data not shown
[2] = molecular target: T1, endogeneous human U-II receptors (6D9 cells, sub-clone of RMS13) (Homo sapiens, UniProt Q9UKP6); assay: CDS (CellKey) electrical impedance assay in 6D9 cells; type: cell-based; settings: FIG. 3B
T1 construct: Cells of RMS13 and 6D9 have endogeneous human U-II receptors; host or cells: RMS13 (human) and 6D9, a sub-clone of RMS13
T1 sequence (Q9UKP6 1-389): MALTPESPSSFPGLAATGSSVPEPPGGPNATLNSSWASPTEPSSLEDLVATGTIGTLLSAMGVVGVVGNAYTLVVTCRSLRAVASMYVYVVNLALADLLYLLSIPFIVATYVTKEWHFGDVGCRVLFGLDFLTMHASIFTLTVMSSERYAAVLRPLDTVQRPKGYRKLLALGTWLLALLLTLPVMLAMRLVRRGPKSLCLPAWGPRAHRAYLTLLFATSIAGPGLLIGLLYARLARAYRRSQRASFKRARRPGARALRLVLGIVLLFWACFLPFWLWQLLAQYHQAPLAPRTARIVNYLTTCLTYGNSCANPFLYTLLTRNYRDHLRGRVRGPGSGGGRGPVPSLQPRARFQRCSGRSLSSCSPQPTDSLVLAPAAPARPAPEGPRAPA
Description: (§1) RMS13 was obtained from ATCC (ATCC NO: CRL-2061™, Manassas, Va.). […] The parent of the CHOrUII cells, CHO-K1 was obtained from ATCC (CAT# CRL-9618_CHOK1). The rat UT receptor was recombinantly cloned into CHO-K1 following standard molecular biology cloning techniques. The CHOrUII cells were under G418 selection. […] Angiotensin was purchased from Sigma. Urantide (PUT-3639-P1) was purchased from Peptide International (Louisville, Ky.).
(§2) Cells of RMS13 and 6D9 were cultured in RPMI medium (ATCC 30-2001) containing 10% FBS (Cat. No. SH30070.03, Hyclone, Logan, Utah). CHOrUII cells were grown in DMEMF12 (Gibco #11330-032) medium containing G418 at 1 mg/ml concentration. Cells were plated at 60 or 70K/well in a medium indicated above overnight. The medium was removed and replaced with Hanks balanced salt solution (HBSS, Gibco) containing 20 mM Hepes and 0.1% BSA. Electrical impedance was measured 2-5 minutes prior to compound addition. Compounds were added and measurements continued. The electrical impedance of the cells was measured using CellKey™ (MDS Sciex, Concord, Ontario) according to the protocol of the manufacturer, see for example Ciambrone et al. (2004, J Biomol Screen. 9(6): 467-80). […]
(§3) Cell density-dependence responses to Urotensin II (500 nM) were analyzed to determine the optimum cell density for the CDS assay at 28° C.

[3] = molecular target: T2, recombinant rat U-II receptors (CHOrUII cells) (Rattus norvegicus, UniProt P49684); assay: CDS (CellKey) electrical impedance assay in CHOrUII cells; type: cell-based; settings: FIG. 3C
T2 construct: expressed in transfected cells; host or cells: CHO-K1 (ATCC CRL-9618), G418 selection
T2 sequence (P49684 1-386): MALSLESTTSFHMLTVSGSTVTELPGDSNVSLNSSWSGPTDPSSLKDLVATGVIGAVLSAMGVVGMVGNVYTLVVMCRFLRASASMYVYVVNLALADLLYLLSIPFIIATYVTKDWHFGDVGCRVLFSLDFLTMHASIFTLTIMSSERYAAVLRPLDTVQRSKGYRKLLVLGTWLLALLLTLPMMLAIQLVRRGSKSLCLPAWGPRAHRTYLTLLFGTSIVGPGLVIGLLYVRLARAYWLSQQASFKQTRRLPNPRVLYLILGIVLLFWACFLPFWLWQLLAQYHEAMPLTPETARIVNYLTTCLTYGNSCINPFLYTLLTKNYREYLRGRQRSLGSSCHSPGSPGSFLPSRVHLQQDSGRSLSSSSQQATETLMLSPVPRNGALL
Description: The CHOrUII cells were under G418 selection. […] Urantide (PUT-3639-P1) was purchased from Peptide International (Louisville, Ky.). Cells of RMS13 and 6D9 were cultured in RPMI medium (ATCC 30-2001) containing 10% FBS (Cat. No. SH30070.03, Hyclone, Logan, Utah). CHOrUII cells were grown in DMEMF12 (Gibco #11330-032) medium containing G418 at 1 mg/ml concentration. Cells were plated at 60 or 70K/well in a medium indicated above overnight. The medium was removed and replaced with Hanks balanced salt solution (HBSS, Gibco) containing 20 mM Hepes and 0.1% BSA. Electrical impedance was measured 2-5 minutes prior to compound addition. Compounds were added and measurements continued. […] In particular, 100 mV voltage was applied to the cells with a sweeping frequency range of 1 kHz to […]. Cell density-dependence responses to Urotensin II (500 nM) were analyzed to determine the optimum cell density for the CDS assay at 28° C.

[4] = molecular target: T3, endogeneous human U-II receptors (RMS13 cells) (Homo sapiens, UniProt Q9UKP6); assay: CDS (CellKey) electrical impedance assay in RMS13 cells; type: cell-based; settings: FIG. 3A
T3 construct: Cells of RMS13 and 6D9 have endogeneous human U-II receptors; host or cells: RMS13 (human) and 6D9, a sub-clone of RMS13
T3 sequence (Q9UKP6 1-389): T1 sequence (Q9UKP6 1-389)
Description: as §1, §2, §3

[5] = molecular target: T4, human UT receptor (Homo sapiens, UniProt Q9UKP6); settings: CHO cells over-expressing the human UT receptor (Camarda, 2004); cited from earlier work
T4 construct: host or cells: CHO cells over-expressing the human UT receptor
T4 sequence (Q9UKP6 1-389): T1 sequence (Q9UKP6 1-389)

[6] = molecular target: T5, UT receptor (Rattus norvegicus, UniProt P49684); settings: competitive UT receptor antagonist, rat aorta (Patacchini, 2003); cited from earlier work
T5 construct: pure UT receptor antagonist in rat aorta vasoconstriction assays; host or cells: rat aorta tissue
T5 sequence (P49684 1-386): T2 sequence (P49684 1-386)

[7] = molecular target: human U-II receptor (endogeneous, on RMS13 and 6D9 cells) (human) (UniProt Q9UKP6); assay: cell-based or functional assay

EC50 of the dose dependent increase in electrical impedance of 6D9 cells (CDS, CellKey) [7] [nM] | EC50 of the dose dependent increase in electrical impedance of RMS13 cells (CDS, CellKey) [7] [nM] | Molecule | binding activity to proteins within a panel of receptor/ion channels [1] | effect on U-II stimulated increase in electrical impedance [2] | effect on U-II stimulated increase in electrical impedance [3] | effect on U-II stimulated increase in electrical impedance [4] | agonist activity [5] | pA2 [6]
 |  | CC(C)[C@H](NC(=O)[C@@H]1CSSC(C)(C)[C@H](NC(=O)[C@@H](N)CC(=O)O)C(=O)N[C@@H](Cc2ccccc2)C(=O)N[C@H](Cc2c[nH]c3ccccc23)C(=O)N[C@@H](CCCN)C(=O)N[C@@H](Cc2ccc(O)cc2)C(=O)N1)C(=O)O [Urantide] (H-D[Pen]F[dW][Orn]YCV-OH; disulfide 2-7) | minimal binding activity | blocked the U-II stimulated increase | blocked the U-II stimulated increase | blocked the U-II stimulated increase | potent U-II agonist | 8.3
0.42 | 0.27 | Urotensin-II (peptide) |  |  |  |  |  | 
 |  | angiotensin |  | did not | did not | did not |  | 
